Measured values published in ChEMBL document CHEMBL1135866, “Photochemical preparation of a pyridone containing tetracycle: a Jak protein kinase inhibitor” (Bioorg Med Chem Lett, 2002).

Assays:
[1] = biological target: Tyrosine-protein kinase HCK (Homo sapiens, UniProt P08631); experiment: Inhibition of protein kinase Hck
Angiopoietin-1 receptor = Angiopoietin-1 receptor (Homo sapiens, UniProt Q02763); experiment: Inhibition of Tek kinase
[2] = biological target: T1, Inhibitor of nuclear factor kappa-B kinase subunit beta (Homo sapiens, UniProt O14920); experiment: Inhibition of I-kappa-B kinase 2
T1 sequence (O14920 whole entry): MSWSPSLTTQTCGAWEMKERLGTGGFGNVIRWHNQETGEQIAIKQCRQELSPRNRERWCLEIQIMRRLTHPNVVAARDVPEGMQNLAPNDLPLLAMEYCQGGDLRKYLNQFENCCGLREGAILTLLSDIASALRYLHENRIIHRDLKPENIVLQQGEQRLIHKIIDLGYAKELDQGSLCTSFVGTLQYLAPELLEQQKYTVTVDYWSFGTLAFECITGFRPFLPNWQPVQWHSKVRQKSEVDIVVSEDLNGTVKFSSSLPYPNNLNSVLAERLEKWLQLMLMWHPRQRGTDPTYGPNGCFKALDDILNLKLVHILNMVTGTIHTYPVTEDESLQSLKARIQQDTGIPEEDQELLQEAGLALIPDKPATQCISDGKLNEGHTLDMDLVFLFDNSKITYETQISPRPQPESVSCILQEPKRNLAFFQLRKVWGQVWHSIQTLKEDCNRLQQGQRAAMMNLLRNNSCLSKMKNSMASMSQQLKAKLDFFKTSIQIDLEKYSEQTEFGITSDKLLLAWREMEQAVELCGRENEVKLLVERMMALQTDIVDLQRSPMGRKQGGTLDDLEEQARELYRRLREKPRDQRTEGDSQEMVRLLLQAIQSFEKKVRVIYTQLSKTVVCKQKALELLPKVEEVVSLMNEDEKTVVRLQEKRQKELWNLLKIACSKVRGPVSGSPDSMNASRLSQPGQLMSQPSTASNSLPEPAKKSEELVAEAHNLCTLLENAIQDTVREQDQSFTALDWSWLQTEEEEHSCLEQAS

[3] = Inhibition of IL-2 induced JAK-1/JAK-3-associated murine T cell lymphoma cell proliferation; type: functional, cell-based; details: Mus musculus
[4] = Inhibition of protein kinase cAMP-dependent protein kinase
CTLL = experiment: Inhibition of PMA-induced murine T cell lymphoma cell proliferation; type: functional, cell-based; details: Mus musculus
[5] = biological target: Cyclin-dependent kinase 2 (Homo sapiens, UniProt P24941); experiment: Inhibition of cyclin dependent kinase 2
[6] = Inhibition of IL-4 induced JAK-1/JAK-3 associated murine T cell lymphoma cell proliferation; type: functional, cell-based; details: Mus musculus
[7] = biological target: Protein kinase C alpha type (Homo sapiens, UniProt P17252); experiment: Inhibition of protein kinase C alpha
[8] = biological target: RAF proto-oncogene serine/threonine-protein kinase (Homo sapiens, UniProt P04049); experiment: Inhibition of protein kinase Raf
Sequence of RAF proto-oncogene serine/threonine-protein kinase (P04049 whole entry): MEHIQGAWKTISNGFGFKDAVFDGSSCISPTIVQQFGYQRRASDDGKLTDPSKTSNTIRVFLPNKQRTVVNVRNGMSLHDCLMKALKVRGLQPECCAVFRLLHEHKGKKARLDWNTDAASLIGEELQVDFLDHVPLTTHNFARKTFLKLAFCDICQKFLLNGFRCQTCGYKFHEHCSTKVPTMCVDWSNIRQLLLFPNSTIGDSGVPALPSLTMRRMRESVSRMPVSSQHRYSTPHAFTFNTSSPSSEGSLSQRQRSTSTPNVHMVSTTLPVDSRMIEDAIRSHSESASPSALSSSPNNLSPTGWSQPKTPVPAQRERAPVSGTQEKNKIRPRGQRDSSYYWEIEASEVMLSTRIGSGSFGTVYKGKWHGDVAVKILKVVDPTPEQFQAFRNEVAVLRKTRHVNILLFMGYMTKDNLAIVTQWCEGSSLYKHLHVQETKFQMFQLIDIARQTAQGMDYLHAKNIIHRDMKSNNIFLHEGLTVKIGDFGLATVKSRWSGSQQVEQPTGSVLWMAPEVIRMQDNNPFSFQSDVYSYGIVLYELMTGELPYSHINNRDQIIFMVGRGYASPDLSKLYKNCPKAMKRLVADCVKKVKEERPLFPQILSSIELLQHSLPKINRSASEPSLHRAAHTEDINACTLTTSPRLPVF

[9] = biological target: Fibroblast growth factor receptor 2 (Homo sapiens, UniProt P21802); experiment: Inhibition of Fibroblast growth factor receptor 2
Sequence of Fibroblast growth factor receptor 2 (P21802 whole entry): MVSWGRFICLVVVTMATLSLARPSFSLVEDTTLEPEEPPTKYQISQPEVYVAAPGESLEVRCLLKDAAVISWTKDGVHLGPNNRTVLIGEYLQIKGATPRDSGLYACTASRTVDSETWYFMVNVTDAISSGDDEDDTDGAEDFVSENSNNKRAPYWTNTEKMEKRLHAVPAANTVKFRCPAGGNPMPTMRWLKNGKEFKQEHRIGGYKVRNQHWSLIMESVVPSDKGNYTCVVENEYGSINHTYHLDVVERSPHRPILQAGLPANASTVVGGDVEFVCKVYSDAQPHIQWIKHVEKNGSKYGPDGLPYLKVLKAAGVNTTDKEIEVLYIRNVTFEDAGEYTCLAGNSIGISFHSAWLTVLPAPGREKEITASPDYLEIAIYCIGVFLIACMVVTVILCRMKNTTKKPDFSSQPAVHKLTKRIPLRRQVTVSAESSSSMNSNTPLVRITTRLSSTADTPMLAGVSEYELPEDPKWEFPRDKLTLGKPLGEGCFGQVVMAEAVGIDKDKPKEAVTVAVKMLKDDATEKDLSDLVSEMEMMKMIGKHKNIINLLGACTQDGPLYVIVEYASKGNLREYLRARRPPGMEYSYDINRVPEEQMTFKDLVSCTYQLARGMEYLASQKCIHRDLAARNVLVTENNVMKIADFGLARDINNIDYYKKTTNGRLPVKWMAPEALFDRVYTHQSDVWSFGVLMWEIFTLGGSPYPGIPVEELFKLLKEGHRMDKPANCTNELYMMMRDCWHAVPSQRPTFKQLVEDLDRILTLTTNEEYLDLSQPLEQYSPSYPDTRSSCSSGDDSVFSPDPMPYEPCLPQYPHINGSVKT

[10] = biological target: Vascular endothelial growth factor receptor 3 (Homo sapiens, UniProt P35916); experiment: Inhibition of Vascular endothelial growth factor receptor 3
Sequence of Vascular endothelial growth factor receptor 3 (P35916 whole entry): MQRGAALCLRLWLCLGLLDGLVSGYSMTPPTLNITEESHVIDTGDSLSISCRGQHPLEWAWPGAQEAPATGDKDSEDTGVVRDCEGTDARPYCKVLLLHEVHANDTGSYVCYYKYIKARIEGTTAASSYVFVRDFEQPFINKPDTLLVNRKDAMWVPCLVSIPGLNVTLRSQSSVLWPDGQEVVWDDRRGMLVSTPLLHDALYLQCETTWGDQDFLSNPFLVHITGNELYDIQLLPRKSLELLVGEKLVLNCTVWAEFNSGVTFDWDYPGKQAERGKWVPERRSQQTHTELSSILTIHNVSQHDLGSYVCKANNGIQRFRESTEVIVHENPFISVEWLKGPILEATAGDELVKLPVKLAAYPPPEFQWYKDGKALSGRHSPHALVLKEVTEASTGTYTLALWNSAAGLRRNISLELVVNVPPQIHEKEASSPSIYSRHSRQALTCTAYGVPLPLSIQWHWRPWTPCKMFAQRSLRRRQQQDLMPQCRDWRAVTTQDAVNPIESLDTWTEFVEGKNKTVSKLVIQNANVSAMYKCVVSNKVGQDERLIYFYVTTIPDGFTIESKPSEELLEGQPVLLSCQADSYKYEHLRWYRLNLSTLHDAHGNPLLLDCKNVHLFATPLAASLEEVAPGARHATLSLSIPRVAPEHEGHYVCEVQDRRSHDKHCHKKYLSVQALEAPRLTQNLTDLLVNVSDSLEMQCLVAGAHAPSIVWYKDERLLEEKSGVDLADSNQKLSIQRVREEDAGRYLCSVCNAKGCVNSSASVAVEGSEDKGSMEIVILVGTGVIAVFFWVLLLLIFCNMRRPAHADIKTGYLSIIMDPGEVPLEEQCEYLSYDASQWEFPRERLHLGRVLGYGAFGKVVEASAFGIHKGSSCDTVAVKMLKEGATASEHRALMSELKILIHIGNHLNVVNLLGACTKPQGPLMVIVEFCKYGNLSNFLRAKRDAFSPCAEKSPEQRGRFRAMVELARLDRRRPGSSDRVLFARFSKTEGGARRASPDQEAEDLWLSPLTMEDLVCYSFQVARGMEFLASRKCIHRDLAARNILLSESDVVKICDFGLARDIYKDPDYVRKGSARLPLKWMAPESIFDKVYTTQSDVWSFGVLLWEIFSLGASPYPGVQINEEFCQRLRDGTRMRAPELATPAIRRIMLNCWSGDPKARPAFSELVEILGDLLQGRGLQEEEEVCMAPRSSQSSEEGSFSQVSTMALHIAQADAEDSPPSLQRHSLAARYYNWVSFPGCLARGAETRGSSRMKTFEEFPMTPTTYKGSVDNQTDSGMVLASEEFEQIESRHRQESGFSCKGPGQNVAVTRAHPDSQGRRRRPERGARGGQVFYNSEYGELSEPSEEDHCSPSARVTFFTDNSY

Sequence of Tyrosine-protein kinase HCK (P08631 whole entry): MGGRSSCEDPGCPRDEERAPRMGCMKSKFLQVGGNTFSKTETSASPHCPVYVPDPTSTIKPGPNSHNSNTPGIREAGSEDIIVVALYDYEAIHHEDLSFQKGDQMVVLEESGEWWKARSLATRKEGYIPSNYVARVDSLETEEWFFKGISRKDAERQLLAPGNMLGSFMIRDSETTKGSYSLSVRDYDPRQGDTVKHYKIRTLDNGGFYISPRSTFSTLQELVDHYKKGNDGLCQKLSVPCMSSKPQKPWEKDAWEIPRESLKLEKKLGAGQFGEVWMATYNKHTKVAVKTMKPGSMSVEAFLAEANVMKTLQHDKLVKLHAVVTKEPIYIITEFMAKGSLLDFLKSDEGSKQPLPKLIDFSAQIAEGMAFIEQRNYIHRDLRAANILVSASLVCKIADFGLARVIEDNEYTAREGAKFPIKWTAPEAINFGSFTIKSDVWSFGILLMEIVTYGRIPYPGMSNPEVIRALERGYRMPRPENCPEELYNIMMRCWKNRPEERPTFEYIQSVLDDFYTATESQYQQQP

- IC50 [1]: 7700 nM
- IC50 (Angiopoietin-1 receptor): 24000 nM
- IC50 [2]: 300 nM
- IC50 [4]: 7100 nM
- IC50 [5]: 3300 nM
- IC50 [7]: 1200 nM
- IC50 [8]: > 10000 nM
- IC50 [9]: 940 nM
- IC50 [10]: 690 nM
SMILES: CC(C)(C)c1nc2c3ccc(F)cc3c3c(=O)[nH]ccc3c2[nH]1
- IC50 [3]: 100 nM
- IC50 (CTLL): 3100 nM
- IC50 [6]: 52 nM
